We go through 18 compounds from US4814455A, “Dihydro-3,5-dicarboxylates” (Bristol-Myers Company, priority 1986, dated 1989).

The test system of assay [1] is globally ischemic rat myocardium. Kind of assay: Autolysis: protection of high energy phosphate stores in globally ischemic rat myocardium. More on the design: Autolysis (% Protection): concentration or dose not given beside the values. The note with it: for Autolysis (% Protection): protection of high energy phosphate stores in globally ischemic rat myocardium.
A further assay addresses rat dorsal aorta (Rattus norvegicus, UniProt P22002). The experiment in a line: cell-based. The note with it: read-out: Calcium Entry Blockade (pA2) (converted). The text has this:
Calcium ion entry blockade was studied in various smooth muscle systems such as rat dorsal aorta, portal vein, and trachea.

[2] abbreviates: pA2 = negative log of molar antagonist concentration giving dose ratio of 2, active if 7 or greater.

The structures appear in SMILES notation. Structures can show the parent of a compound that is named as a salt. Where two headings read alike, the source gives them in different places.

Chain of rat dorsal aorta (P22002 whole entry): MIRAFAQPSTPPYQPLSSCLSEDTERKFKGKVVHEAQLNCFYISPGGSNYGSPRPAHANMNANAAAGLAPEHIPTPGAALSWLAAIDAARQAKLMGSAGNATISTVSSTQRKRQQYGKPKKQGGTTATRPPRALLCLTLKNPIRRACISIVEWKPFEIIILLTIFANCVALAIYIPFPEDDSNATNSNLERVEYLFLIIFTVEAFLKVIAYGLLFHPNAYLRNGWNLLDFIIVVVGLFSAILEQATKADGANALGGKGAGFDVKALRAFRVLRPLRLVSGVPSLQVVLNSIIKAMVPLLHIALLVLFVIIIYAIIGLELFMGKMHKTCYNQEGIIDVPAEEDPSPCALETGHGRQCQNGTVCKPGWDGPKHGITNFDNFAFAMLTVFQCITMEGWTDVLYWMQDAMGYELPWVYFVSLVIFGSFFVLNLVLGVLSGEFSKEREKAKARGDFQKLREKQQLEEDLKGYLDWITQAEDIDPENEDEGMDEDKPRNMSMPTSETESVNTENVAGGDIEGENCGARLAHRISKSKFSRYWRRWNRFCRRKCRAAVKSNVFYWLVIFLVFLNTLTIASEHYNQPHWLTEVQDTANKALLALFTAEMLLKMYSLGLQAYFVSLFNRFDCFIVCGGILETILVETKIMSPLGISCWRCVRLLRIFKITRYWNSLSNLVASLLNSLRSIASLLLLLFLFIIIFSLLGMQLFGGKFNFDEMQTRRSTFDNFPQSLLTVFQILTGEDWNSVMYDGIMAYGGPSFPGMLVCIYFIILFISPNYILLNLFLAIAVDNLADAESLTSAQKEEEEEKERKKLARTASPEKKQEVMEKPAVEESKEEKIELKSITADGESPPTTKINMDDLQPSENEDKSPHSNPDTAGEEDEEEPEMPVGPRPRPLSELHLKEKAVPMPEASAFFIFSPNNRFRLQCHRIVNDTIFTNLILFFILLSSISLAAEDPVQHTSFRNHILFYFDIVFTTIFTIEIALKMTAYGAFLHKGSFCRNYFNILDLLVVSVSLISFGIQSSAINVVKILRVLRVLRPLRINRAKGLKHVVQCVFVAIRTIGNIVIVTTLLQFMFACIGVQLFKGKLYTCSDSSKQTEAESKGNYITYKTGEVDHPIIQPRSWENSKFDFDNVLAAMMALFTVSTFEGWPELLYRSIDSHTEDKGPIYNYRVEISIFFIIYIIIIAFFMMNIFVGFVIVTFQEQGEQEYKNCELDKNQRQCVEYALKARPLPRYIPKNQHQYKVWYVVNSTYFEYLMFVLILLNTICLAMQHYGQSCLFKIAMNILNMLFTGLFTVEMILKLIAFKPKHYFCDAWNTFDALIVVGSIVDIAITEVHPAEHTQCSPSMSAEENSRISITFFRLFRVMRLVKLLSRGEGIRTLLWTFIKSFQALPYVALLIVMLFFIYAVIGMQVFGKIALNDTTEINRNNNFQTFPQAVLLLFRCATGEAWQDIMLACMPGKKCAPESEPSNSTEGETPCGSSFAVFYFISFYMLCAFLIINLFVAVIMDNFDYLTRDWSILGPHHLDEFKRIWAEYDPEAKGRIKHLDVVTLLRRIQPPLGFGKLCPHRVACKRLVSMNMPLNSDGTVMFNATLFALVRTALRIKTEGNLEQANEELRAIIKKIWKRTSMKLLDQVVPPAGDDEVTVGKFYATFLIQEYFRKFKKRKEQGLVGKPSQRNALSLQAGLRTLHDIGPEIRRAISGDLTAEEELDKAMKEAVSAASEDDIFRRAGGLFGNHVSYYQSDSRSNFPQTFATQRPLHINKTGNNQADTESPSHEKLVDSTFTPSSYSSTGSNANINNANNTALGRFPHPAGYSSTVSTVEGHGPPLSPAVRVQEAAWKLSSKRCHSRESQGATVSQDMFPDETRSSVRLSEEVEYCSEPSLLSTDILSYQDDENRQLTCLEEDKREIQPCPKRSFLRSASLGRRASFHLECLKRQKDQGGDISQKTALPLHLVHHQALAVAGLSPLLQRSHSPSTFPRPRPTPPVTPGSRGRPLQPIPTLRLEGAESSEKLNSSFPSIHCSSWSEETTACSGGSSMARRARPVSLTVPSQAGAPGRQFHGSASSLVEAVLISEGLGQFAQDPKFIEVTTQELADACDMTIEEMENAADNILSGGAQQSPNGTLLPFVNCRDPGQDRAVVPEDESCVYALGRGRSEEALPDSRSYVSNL
Chain of rat dorsal aorta (P54290 25-944 partner limits assumed): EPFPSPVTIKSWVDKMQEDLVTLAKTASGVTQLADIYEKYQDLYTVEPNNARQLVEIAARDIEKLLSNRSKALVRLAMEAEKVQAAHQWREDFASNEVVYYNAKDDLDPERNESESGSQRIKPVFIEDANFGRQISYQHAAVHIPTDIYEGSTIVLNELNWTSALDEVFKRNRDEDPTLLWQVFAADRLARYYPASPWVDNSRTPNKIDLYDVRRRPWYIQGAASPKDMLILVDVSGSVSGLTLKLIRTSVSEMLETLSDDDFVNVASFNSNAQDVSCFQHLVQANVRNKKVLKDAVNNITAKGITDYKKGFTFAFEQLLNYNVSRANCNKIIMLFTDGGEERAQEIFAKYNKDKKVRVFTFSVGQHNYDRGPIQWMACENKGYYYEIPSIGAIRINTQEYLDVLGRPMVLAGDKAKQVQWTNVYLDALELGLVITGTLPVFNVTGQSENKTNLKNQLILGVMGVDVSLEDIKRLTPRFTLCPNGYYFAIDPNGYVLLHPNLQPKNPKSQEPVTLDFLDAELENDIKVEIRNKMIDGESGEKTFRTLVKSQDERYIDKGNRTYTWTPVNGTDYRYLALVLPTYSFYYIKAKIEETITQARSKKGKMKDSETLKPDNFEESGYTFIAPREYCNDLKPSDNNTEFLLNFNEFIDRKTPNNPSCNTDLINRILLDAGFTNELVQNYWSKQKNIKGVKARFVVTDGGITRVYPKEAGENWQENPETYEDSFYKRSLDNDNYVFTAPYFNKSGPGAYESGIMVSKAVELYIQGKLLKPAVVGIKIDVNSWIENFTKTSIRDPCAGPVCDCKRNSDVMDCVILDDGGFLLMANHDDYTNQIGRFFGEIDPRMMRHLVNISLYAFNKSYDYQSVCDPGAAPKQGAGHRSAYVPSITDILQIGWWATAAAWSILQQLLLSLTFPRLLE
Chain of rat dorsal aorta (P54290 945-1091 partner limits assumed): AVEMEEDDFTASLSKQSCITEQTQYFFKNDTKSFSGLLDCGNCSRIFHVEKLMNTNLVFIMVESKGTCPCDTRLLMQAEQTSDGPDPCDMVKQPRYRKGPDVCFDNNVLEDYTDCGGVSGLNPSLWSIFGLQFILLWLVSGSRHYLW

For the compound `COC(=O)C1=C(C)NC(C)=C(C(=O)OCCCNCCNc2ccccc2)C1c1cccc([N+](=O)[O-])c1` (centres unmarked) [Example 32], the “Autolysis (% Protection)” value in assay [1] turned out to be 0%. For the same compound, the Kb on rat dorsal aorta (setting [2]) was 2.95 nM.

`COC(=O)C1=C(C)NC(C)=C(C(=O)OCCCNCCc2c[nH]c3ccccc23)C1c1cccc([N+](=O)[O-])c1` (centres unmarked) [Example 33]: in assay [1], the “Autolysis (% Protection)” value was 35%. Also, at rat dorsal aorta (setting [2]), the Kb is 0.0316 nM.

On to `COC(=O)C1=C(C)NC(C)=C(C(=O)OCCCN(C)CCSc2ccccc2)C1c1cccc([N+](=O)[O-])c1.Cl` (centres unmarked) [Example 34, Methyl [3-[N-Methyl-N-[2-(phenylthio)ethyl]amino]propyl] 1,4-Dihydro-2,6-dimethyl-4-(3-nitrophenyl)-3,5-pyridinedicarboxylate Hydrochloride], for which the “Autolysis (% Protection)” value in assay [1] amounted to 43%. Further, the Kb at rat dorsal aorta ([…], active if 7 or greater) was 0.126 nM.

Consider `COC(=O)C1=C(C)NC(C)=C(C(=O)OCCCNCCOc2ccccc2)C1c1cccc([N+](=O)[O-])c1` (centres unmarked) [Example 35], for which the “Autolysis (% Protection)” value in assay [1] was found to be 21%. The Kb at rat dorsal aorta (setting [2]) was 0.468 nM.

Take `COC(=O)C1=C(C)NC(C)=C(C(=O)OCCCN(C)CCN(C)c2ccccc2)C1c1cccc([N+](=O)[O-])c1` (centres unmarked) [Example 36]: the “Autolysis (% Protection)” value in assay [1] is listed as 12%. In addition, the Kb on rat dorsal aorta (setting [2]) was 0.126 nM.

As for `COC(=O)C1=C(C)NC(C)=C(C(=O)OCCCN(C)CCNc2ccccc2)C1c1cccc([N+](=O)[O-])c1` (centres unmarked) [Example 37], the “Autolysis (% Protection)” value in assay [1] was found to be 23%. Also, the Kb at rat dorsal aorta (setting [2]) is 0.129 nM.

As to `COC(=O)C1=C(C)NC(C)=C(C(=O)OCCCN(C)CCN(Cc2ccccc2)c2ccccc2)C1c1cccc([N+](=O)[O-])c1` (centres unmarked) [Example 38], the “Autolysis (% Protection)” value in assay [1] is recorded as 16%.

For `COC(=O)C1=C(C)NC(C)=C(C(=O)OCCCN(C)CCSc2ccc(C(C)(C)C)cc2C)C1c1cccc([N+](=O)[O-])c1` (centres unmarked) [Example 39], the “Autolysis (% Protection)” value in assay [1] is recorded as 51%. Further, the Kb at rat dorsal aorta (setting [2]) was 14.5 nM.

For the compound `COC(=O)C1=C(C)NC(C)=C(C(=O)OCCCN(C)CCCSc2ccccc2)C1c1cccc([N+](=O)[O-])c1` (centres unmarked) [Example 40], in assay [1], the “Autolysis (% Protection)” value amounted to 23%. Moreover, the Kb at rat dorsal aorta (setting [2]) is 3.63 nM.

Regarding `COC(=O)C1=C(C)NC(C)=C(C(=O)OCCCN(C)CCSc2ccccc2OC)C1c1cccc([N+](=O)[O-])c1` (centres unmarked) [Example 41], at rat dorsal aorta (setting [2]), the Kb is 2.75 nM.

For the compound `COC(=O)C1=C(C)NC(C)=C(C(=O)OCCCNCCSc2ccccc2)C1c1cccc([N+](=O)[O-])c1` (centres unmarked) [Example 42], the Kb at rat dorsal aorta (setting [2]) was 8.32 nM.

Take `COC(=O)C1=C(C)NC(C)=C(C(=O)OCCCN(CCSc2ccccc2)CCSc2ccccc2)C1c1cccc([N+](=O)[O-])c1` (centres unmarked) [Example 43]: the “Autolysis (% Protection)” value in assay [1] amounted to 2%. At rat dorsal aorta (setting [2]), the Kb is 2.4 nM.

On to `CCCCN(CCCOC(=O)C1=C(C)NC(C)=C(C(=O)OC)C1c1cccc([N+](=O)[O-])c1)CCOc1ccccc1` (centres unmarked) [Example 44, [3-[[N-Butyl-N-(2-phenoxyethyl)]amino]propyl]Methyl 1,4-Dihydro-2,6-dimethyl-4-(3-nitrophenyl)-3,5-pyridinedicarboxylate Hydrochloride Hemihydrate], for which the “Autolysis (% Protection)” value in assay [1] is 16%. Moreover, at rat dorsal aorta (setting [2]), the Kb is 0.933 nM.

With `COC(=O)C1=C(C)NC(C)=C(C(=O)OCCCN(CCN(C)c2ccccc2)Cc2ccccc2)C1c1cccc([N+](=O)[O-])c1` (centres unmarked) [Example 45, [3-[[[2-(N-Methyl-N-phenyl)amino]ethyl]-N'-phenylmethyl]propyl]Methyl 1,4-Dihydro-2,6-dimethyl-4-(3-nitrophenyl)-3,5-pyridinedicarboxylate Dihydrochloride Sesquihydrate], at rat dorsal aorta (setting [2]), the Kb was 0.794 nM.

Consider `COC(=O)C1=C(C)NC(C)=C(C(=O)OCCCN(CCSc2ccccc2)Cc2ccccc2)C1c1cccc([N+](=O)[O-])c1.Cl` (centres unmarked) [Example 46, Methyl [3-[N-(Phenylmethyl)-N-[2-(phenylthio)ethyl]amino]propyl] 1,4-Dihydro-2,6-dimethyl-4-(3-nitrophenyl)-3,5-pyridinedicarboxylate Hydrochloride], for which the “Autolysis (% Protection)” value in assay [1] was 3%. For the same compound, on rat dorsal aorta ([…], active if 7 or greater), the Kb was 5.62 nM.

Consider `COC(=O)C1=C(C)NC(C)=C(C(=O)OCCCN(C)CC[S+]([O-])c2ccccc2)C1c1cccc([N+](=O)[O-])c1` (centres unmarked) [Example 47, Methyl [3-[N-Methyl-N-[2-phenylsulfinyl)ethyl]amino]propyl] 1,4-Dihydro-2,6-dimethyl-4-(3-nitrophenyl)-3,5-pyridinedicarboxylate Hydrochloride Hydrate], for which the “Autolysis (% Protection)” value in assay [1] was 21%. Moreover, at rat dorsal aorta (setting [2]), the Kb was 0.251 nM.

With `COC(=O)C1=C(C)NC(C)=C(C(=O)OCCN(C)Cc2ccccc2)C1c1cccc([N+](=O)[O-])c1` (centres unmarked) [Nicardipine, reference compound], in assay [1] (in words, in vitro and in vivo laboratory tests), the “anti-ischemia action / protection against autolysis caused by ischemia” value is reported as “fails to provide any protection against autolysis caused by ischemia”. In addition, the “Autolysis (% Protection)” value in assay [1] came to 0%. For the same compound, the Kb on rat dorsal aorta (setting [2]) was 1.12 nM.

Turning to `COC(=O)C1=C(C)NC(C)=C(C(=O)OC)C1c1ccccc1[N+](=O)[O-]` [Nifedipine, 4-(2'-nitrophenyl)-2,6-dimethyl-3,5-dicarbomethoxy-1,4-dihydropyridine, reference compound], the “Autolysis (% Protection)” value in assay [1] turned out to be 21%.
